# According to patent US8178506B2, “Oligomeric compounds and compositions for use in modulation of small non-coding RNAs” (Regulus Therapeutics Inc., priority 2003, dated 2012):
# In the oligonucleotide strings, read from the 5' end, every base follows the letter of its sugar. An asterisk marks phosphorothioate; unmarked linkages are phosphodiester. Other units and linkages are bracketed, terminal groups are in braces. A string of capitals states the bases alone. e = 2'-O-(2-methoxyethyl) (MOE); [5mC] = 5-methylcytosine; d = 2'-deoxy (DNA)
# Columns and labels:
# Assay type in all cases: cell-based, human
# IGFBP-1 = IGFBP-1 mRNA expression in HepG2 cells; settings: for IGFBP1 mRNA expression: Experiment 2, insulin treated: HepG2 cells transfected with oligomeric compound, 1 nM insulin for four hours, UTC + 1 nM insulin = 100
# Experimental: (§1) Approximately 28 hours after transfection, the cells are subjected to serum starvation for a period of 12 to 16 hours, using serum-free growth medium. Following serum starvation, cells are treated with 1 nM insulin (insulin-treated) or are left untreated (basal conditions) for approximately four hours. At the same time, untreated control cells in both plates are treated with 100 nM insulin to determine the maximal insulin response. Following insulin treatment (forty-eight hours after transfection), total RNA is harvested from all samples, and the amount of total RNA from each sample is determined using a Ribogreen assay (Invitrogen Corporation, Carlsbad, Calif.). Real-time PCR is performed on the total RNA samples using primer/probe sets for three insulin responsive genes: insulin-like growth factor binding protein-1 (IGFBP-1), cytosolic PEPCK (PEPCK-C), and follistatin. Gene expression levels obtained by real-time PCR are normalized for total RNA content in the samples.
# (§2) Oligomeric compounds of the present invention were tested for their effects on insulin signaling in HepG2 cells. HepG2 cells were plated at 7500 cells/well in collagen coated 96-well plates. The following day, cells were transfected with oligomeric compounds targeting miRNAs using 100 nM oligomeric compound in LIPOFECTIN™ (Invitrogen Corporation, Carlsbad, Calif.) in two 96-well plates. The oligomeric compounds were tested in triplicate on each 96-well plate, except for positive and negative controls, which were measured up to six times per plate. At the end of transfection, the transfection medium was replaced by regular growth medium. Twenty-eight hours post-transfection, the cells were subjected to overnight (sixteen to eighteen hours) serum starvation using serum free growth medium. Forty-four hours post-transfection, the cells in the transfected wells were treated with either no insulin (“basal” Experiment 1, for identification of insulin-mimetic compounds) or with 1 nM insulin (“insulin treated” Experiment 2, for identification of insulin sensitizers) for four hours. At the same time, in both plates, cells in some of the un-transfected control wells are treated with 100 nM insulin to determine maximal insulin response. At the end of the insulin or no-insulin treatment (forty-eight hours post-transfection), total RNA is isolated from both the basal and insulin treated (1 nM) 96-well plates, and the amount of total RNA from each sample is determined using a Ribogreen assay (Molecular Probes, Eugene, Oreg.). Real-time PCR is performed on all the total RNA samples using primer/probe sets for three insulin responsive genes: PEPCK-c, IGFBP-1 and follistatin. Expression levels for each gene are normalized to total RNA, and values+standard deviation are expressed relative to the transfectant only untreated control (UTC) and negative control compounds.
# (§3) Protocols for treatment of HepG2 cells and transfection of oligomeric compounds are as described in Example 18. Also as described in Example 18, forty-four hours post-transfection, the cells in the transfected wells were treated with either no insulin (“basal” Experiment 3 (below), for identification of insulin-mimetic compounds) or with 1 nM insulin (“insulin treated” Experiment 4 (below), for identification of insulin sensitizers) for four hours. At the same time, in both plates, cells in some of the un-transfected control wells are treated with 100 nM insulin to determine maximal insulin response. At the end of the insulin or no-insulin treatment (forty-eight hours post-transfection), total RNA is isolated from both the basal and insulin treated (1 nM) 96-well plates, and the amount of total RNA from each sample is determined using a Ribogreen assay (Molecular Probes, Eugene, Oreg.).
# follistatin = assay: Follistatin mRNA expression in HepG2 cells; settings: for Follistatin mRNA expression: Experiment 2, insulin treated: HepG2 cells transfected with oligomeric compound, 1 nM insulin for four hours, UTC + 1 nM insulin = 100
# Experimental: as §1, §2, §3
# PEPCK-c = PEPCK-c mRNA expression in HepG2 cells; settings: for PEPCKc mRNA expression: Experiment 2, insulin treated: HepG2 cells transfected with oligomeric compound, 1 nM insulin for four hours, UTC + 1 nM insulin = 100
# Experimental: as §1, §2, §3
# [1] = Experiment 3, basal (no insulin), HepG2 cells, 48 hours post-transfection
# [2] = Experiment 4, insulin-sensitization: HepG2 cells treated with 1 nM insulin for four hours, 48 h post-transfection, mRNA by real-time PCR
Substance,IGFBP-1 (% UTC) (IGFBP-1; [1]),IGFBP-1 (% UTC) (IGFBP-1; [2]),Follistatin (% UTC) (follistatin; [1]),Follistatin (% UTC) (follistatin; [2]),PEPCK-c (% UTC) (PEPCK-c; [1]),PEPCK-c (% UTC) (PEPCK-c; [2]),IGFBP1 mRNA expression (IGFBP-1),Follistatin mRNA expression (follistatin),PEPCKc mRNA expression (PEPCK-c)
186515 (antisense eA*eG*eG*eT*eA*dG*d[5mC]*dT*dT*dT*dG*dA*dT*dT*dA*eT*eG*eT*eA*eA) [compound 186515],193 % UTC,105 % UTC,67 % UTC,39 % UTC,70 % UTC,40 % UTC,,,
328343 (eT*e[5mC]*eG*eA*eT*dT*dT*dA*dG*dT*dT*dA*dT*d[5mC]*dT*eA*eA*eA*eA*eA) [compound 328343],,,,,,,135,139,69
328358 (eA*eG*eT*eT*eT*dG*dA*dA*dG*dT*dG*dT*d[5mC]*dA*d[5mC]*eA*eG*e[5mC]*eG*e[5mC]) [compound 328358],,,,,,,165,106,93
328367 (eA*e[5mC]*eT*eG*eA*dG*dG*dG*d[5mC]*dG*dG*d[5mC]*d[5mC]*d[5mC]*dG*eG*eG*e[5mC]*eA*eG) [compound 328367],,,,,,,141,107,85
328702 (eT*eG*eA*e[5mC]*e[5mC]*dA*d[5mC]*dA*dA*dA*dA*dT*dT*d[5mC]*d[5mC]*eT*eT*eA*e[5mC]*eA; antisense) [compound 328702],,,,,,,83,88,96
328761 (antisense eG*e[5mC]*eA*eG*eG*d[5mC]*dT*dA*dA*dA*dA*dG*dA*dA*dA*eT*eA*eA*eG*e[5mC]) [compound 328761],118 % UTC,93 % UTC,91 % UTC,98 % UTC,48 % UTC,55 % UTC,193,53,64
328764 (antisense eA*eG*eA*eT*eG*dT*dT*dT*d[5mC]*dT*dG*dG*d[5mC]*d[5mC]*dT*eG*e[5mC]*eG*eA*eG) [compound 328764],,,,,,,145,128,68
328765 (antisense eG*eA*e[5mC]*eA*eA*dA*d[5mC]*dT*d[5mC]*dA*dG*d[5mC]*dT*dA*dT*eA*eT*eT*eG*eT) [compound 328765],88 % UTC,94 % UTC,87 % UTC,97 % UTC,93 % UTC,73 % UTC,,,
328769 (antisense eA*eG*eG*e[5mC]*eT*dG*dG*dA*d[5mC]*dA*dG*d[5mC]*dA*d[5mC]*dA*e[5mC]*eA*eA*e[5mC]*e[5mC]) [compound 328769],,,,,,,110,84,100
328774 (antisense eG*e[5mC]*eA*e[5mC]*e[5mC]*d[5mC]*dG*d[5mC]*d[5mC]*dT*d[5mC]*dA*d[5mC]*dA*d[5mC]*eA*e[5mC]*eG*eT*eG) [compound 328774],,,,,,,100,68,77
